# From patent US20160067425A1, “DEVICES AND METHODS FOR TREATING TISSUES AND TISSUE CONDITIONS” (priority 2014, published 2016)
# Key:
# [1] = system: basal cell carcinoma (BCC); assay: Intralesional treatment of clamp-isolated basal cell carcinoma on the ear lobe (Example 1); assay type: in vivo, human
# Experimental: A person with basal cell carcinoma (one year history of asymptomatic growth) on their left ear lobe was treated by mechanically isolating the basal cell carcinoma (BCC). Diagnosis of BCC was made based on the lesion's clinical presentation as a well-circumscribed pearly nodule with central crusted ulceration (see FIG. 14A) and the results of a shave biopsy (see FIG. 15A). The patient refused surgical therapy.
# A chalazion clamp was used to isolate the tissue surrounding the BCC. One fifth unit (0.2 cc×1 unit/cc) of bleomycin in 1% lidocaine was injected into the clamped region (systemic bleomycin concentrations are typically in the range of 0.00023 units/mL or about 1000×lower). […] After 20 minutes, an 18-gauge needle was used to remove most of the injected fluid from the clamped area. The chalazion clamp was then removed.
# [2] = typical systemic range, compared with 1 unit/cc injected; cited from earlier work
substance,measurement,setting,value
bleomycin,adverse effects / patient complaints,"[1]; 0.2 unit intralesional in clamped region, 20 minutes",no adverse effects
same,retention of injected agent in the pressure isolated region,"[1]; chalazion clamp, evidenced by localized raised and stretched area of the skin",remained within the clamped area
same,clinical appearance of the BCC after treatment,"[1]; patient, left ear lobe, 0.2 cc x 1 unit/cc in 1% lidocaine injected into chalazion-clamped region, removed after 20 minutes, 25-days post-treatment",clinically cured
same,histology from 4 mm punch biopsy after treatment,"[1]; post-treatment punch biopsy, FIG. 15B",confirm by histology
same,systemic concentrations typically used,[2],~0.00023 units/mL
